This passage reports IC50 results from patent US10633394B2, “Heterocyclic derivatives and use thereof” (C & C RESEARCH LABORATORIES, priority 2014, dated 2020).

What all share (type): cell-based
One test addresses T1, STAT3 (Homo sapiens, UniProt P40763).
T1 construct: plasmid pSTAT3-TA-luc), which contains a stably operating STAT3 promoter; endogenous in cells
Put plainly: STAT3 reporter gene (luciferase) assay in LNCaP stable cell line stimulated with IL-6. As to conditions: LNCaP stable cell line (pSTAT3-TA-luc), IL-6 10 ng/mL, 24 hours. The protocol:
1-1) Experiment on the Inhibition of STAT3 Activity
A human prostate cancer cell line (LNCaP stable cell line; plasmid pSTAT3-TA-luc), which contains a stably operating STAT3 promoter, was cultured in RPMI1640 medium (Cat No. 11875, Life Technologies) containing 10% fetal bovine serum (FBS) (Cat No. SH30396, Thermo Scientific) and 150 μg/mL G-418 solution (Cat No. 04 727 894 001, Roche). The reporter gene assay using LNCaP stable cell line was performed in RPMI1640 medium containing 3% DCC-FBS without G-418 solution. LNCaP stable cells were plated in two (2) white 96-well plates with 30,000 cells/50 μL in each well. The cells were cultured at 37° C., under 5% CO2 for 24 hours, and then treated with the compounds listed in Examples which were diluted in various concentrations. Subsequently, IL-6 was added to each well with a final concentration of 10 ng/mL. Upon completion of the treatment with the compounds and IL-6, the cells were cultured at 37° C., under 5% CO2 for 24 hours. The plates were observed under microscope and drug precipitation and particular findings were investigated and recorded.
The luciferase assay and the cell viability assay were performed respectively with one of the two plates. For the luciferase assay, the liquid media in the 96-well plate was removed, and then, 20 μL of passive cell lysis buffer was added to each well. After shaking the plate for 30 minutes, luciferase activities of each well were measured in a PHERAstar™ microplate reader (BMG LABTECH) using a luciferase assay system (Cat No. E1501, Promega). For the cell viability assay, the 96-well plate was placed at room temperature for 30 minutes, added with 20 μL/well of CellTiter-Glo solution (Cat No. G7573, Promega), and shaken for 10 minutes in order to measure cytotoxicity caused by the compounds listed in Examples with a PHERAstar™ microplate reader (BMG LABTECH). Wells without 0.1% DMSO and stimulation were used as a negative control and wells with 0.1% DMSO and stimulation were used as a positive control.
The results of evaluation on the inhibitory effect of the compounds listed in the Examples on the dimerization of STAT3 and STAT1 obtained via the STAT3 and STAT1 reporter gene assays are shown in Table 6 below.
On the technique in general: In a reporter assay the amount or activity of a reporter protein is the signal.

In another test the test system is NCI-N87. Put plainly: Cell growth inhibition assay (CellTiter-Glo), stomach cancer cell line NCI-N87. Particulars: Homo sapiens; NCI-N87 cells, 96 hours. The protocol: (§1) The inhibitory effects of the compounds of the present invention against the growth of cancer cells were evaluated as shown below. The cancer cell lines including stomach cancer cell line (NCI-N87) and breast cancer cell line (MDA-MB-468) were cultured under the protocol provided by each supplier. Each type of cells to be used in experiments was sub-cultured in a 96-well plate by counting the exact number of cells using Tali™ Image-based Cytometer (Life Technologies). In a 96-well plate, NCI-N87 was employed with 5,000 cells/well; and MDA-MB-468 was employed with 10,000 cells/well. The cells were treated with the compounds listed in Examples which were diluted in various concentrations. Upon completion of the compounds treatment, NCI-N87 cells were cultured at 37° C. under 5% CO2 for 96 hours, and MDA-MB-468 cells were cultured at 37° C. in air for 96 hours. Subsequently, the cells were observed under microscope and drug precipitation and particular findings were investigated and recorded. And then, the 96-well plate was placed at room temperature for 30 minutes, added with 20 μL/well of CellTiter-Glo solution (Cat No. G7573, Promega) and shaken for 10 minutes, followed by being subjected to the measurement using PHERAstar™ microplate reader (BMG LABTECH) according to the supplier's general luminometer protocol. Wells where only culture liquid added without cell plating were used as a negative control, whereas wells where culture liquid containing 0.1% DMSO instead of the compounds listed in Examples were used as a positive control.
For orientation: In ATP-based viability assays light output follows the ATP content of the culture.

A further test has as its system MDA-MB-468. In words: Cell growth inhibition assay (CellTiter-Glo), breast cancer cell line MDA-MB-468. As to conditions: Homo sapiens; MDA-MB-468 cells, 96 hours. The protocol:
as §1

T1 sequence (P40763 whole entry): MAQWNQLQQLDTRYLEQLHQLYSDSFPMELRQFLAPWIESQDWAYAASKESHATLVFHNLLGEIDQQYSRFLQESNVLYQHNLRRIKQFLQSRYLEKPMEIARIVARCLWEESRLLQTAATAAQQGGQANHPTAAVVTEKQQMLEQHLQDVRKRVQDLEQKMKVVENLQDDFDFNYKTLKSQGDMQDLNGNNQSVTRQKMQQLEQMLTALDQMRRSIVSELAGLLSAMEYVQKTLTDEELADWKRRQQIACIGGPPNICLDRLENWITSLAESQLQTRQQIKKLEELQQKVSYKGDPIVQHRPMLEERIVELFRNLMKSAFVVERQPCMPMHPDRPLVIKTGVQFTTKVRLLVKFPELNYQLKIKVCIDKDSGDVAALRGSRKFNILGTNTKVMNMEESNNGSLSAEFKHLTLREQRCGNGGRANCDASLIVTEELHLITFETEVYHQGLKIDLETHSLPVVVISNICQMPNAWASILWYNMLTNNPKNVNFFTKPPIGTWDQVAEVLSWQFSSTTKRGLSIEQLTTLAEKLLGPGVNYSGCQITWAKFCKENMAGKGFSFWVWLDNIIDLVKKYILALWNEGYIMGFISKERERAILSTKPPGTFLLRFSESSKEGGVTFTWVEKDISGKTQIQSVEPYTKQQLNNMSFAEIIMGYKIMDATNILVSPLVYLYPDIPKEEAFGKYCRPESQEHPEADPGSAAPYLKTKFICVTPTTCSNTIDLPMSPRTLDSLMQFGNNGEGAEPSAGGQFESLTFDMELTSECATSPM

Consider `CS(=O)(=O)C1CCOc2cc3sc(C(=O)Nc4cc(Cl)nc(Oc5ccc(OC(F)(F)F)cc5)c4)cc3cc21` (stereo not drawn) [Example 28, N-(2-chloro-6-(4-(trifluoromethoxy)phenoxy)pyridin-4-yl)-4-(methylsulfonyl)-3,4-dihydro-2H-thieno[3,2-g]chromene-7-carboxamide], for which the IC50 against STAT3 stood at 0.0051 µM; with NCI-N87, 0.0056 µM; in the test with MDA-MB-468, 0.002 µM.

On to `CN1CCN(S(C)(=O)=O)c2cc3cc(C(=O)Nc4cc(Cl)nc(Oc5ccc(Cl)cc5)c4)sc3cc21` [Example 7, N-(2-chloro-6-(4-chlorophenoxy)pyridin-4-yl)-4-methyl-1-(methylsulfonyl)-1,2,3,4-tetrahydrothieno[2,3-g]quinoxaline-7-carboxamide], for which the IC50 was determined as 0.012 µM on STAT3, 0.027 µM with NCI-N87 and 0.0065 µM in the test on MDA-MB-468.

As for `CS(=O)(=O)C1CCCOc2cc3sc(C(=O)Nc4cc(Cl)nc(Oc5ccc(Cl)cc5)c4)cc3cc21` (stereo not drawn) [Example 9, N-(2-chloro-6-(4-chlorophenoxy)pyridin-4-yl)-5-(methylsulfonyl)-2,3,4,5-tetrahydrothieno[3′,2′:4,5]benzo[1,2-b]oxepine-8-carboxamide], the IC50 against STAT3 is 0.029 µM; in the test on NCI-N87, 0.067 µM; in the test on MDA-MB-468, 0.023 µM.

As for `CS(=O)(=O)C1CCOc2cc3sc(C(=O)Nc4cc(Cl)nc(Oc5cccc(OC(F)(F)F)c5)c4)cc3cc21` (stereo not drawn) [Example 29, N-(2-chloro-6-(3-(trifluoromethoxy)phenoxy)pyridin-4-yl)-4-(methylsulfonyl)-3,4-dihydro-2H-thieno[3,2-g]chromene-7-carboxamide], the IC50 was 0.0059 µM against STAT3, 0.0046 µM in the test on NCI-N87 and 0.0029 µM in the test with MDA-MB-468.

As for `CS(=O)(=O)[C@@]1(F)CCOc2cc3sc(C(=O)Nc4cc(Cl)nc(Oc5ccc(Cl)cc5)c4)cc3cc21` [Example 45, (S)—N-(2-chloro-6-(4-chlorophenoxy)pyridin-4-yl)-4-fluoro-4-(methylsulfonyl)-3,4-dihydro-2H-thieno[3,2-g]chromene-7-carboxamide], the IC50 at STAT3 was 0.0039 µM; with NCI-N87 it was 0.0056 µM; with MDA-MB-468 it was 0.0025 µM.

As for `Cc1cccc(Oc2cc(NC(=O)c3cc4cc5c(cc4s3)OCCC5S(C)(=O)=O)cc(Cl)n2)c1` (stereo not drawn) [Example 33, N-(2-chloro-6-(m-tolyloxy)pyridin-4-yl)-4-(methylsulfonyl)-3,4-dihydro-2H-thieno[3,2-g]chromene-7-carboxamide], the IC50 came out at 0.0098 µM at STAT3, 0.024 µM in the test on NCI-N87 and 0.0093 µM with MDA-MB-468.

As to `CS(=O)(=O)C1CCOc2cc3sc(C(=O)Nc4cc(Cl)nc(Oc5ccccc5OC(F)(F)F)c4)cc3cc21` (stereo not drawn) [Example 40, N-(2-chloro-6-(2-(trifluoromethoxy)phenoxy)pyridin-4-yl)-4-(methylsulfonyl)-3,4-dihydro-2H-thieno[3,2-g]chromene-7-carboxamide], the IC50 against STAT3 was determined as 0.0087 µM; in the test with NCI-N87, 0.023 µM; in the test with MDA-MB-468, 0.0086 µM.

For the compound `COc1cc(F)cc(Oc2cc(NC(=O)c3cc4cc5c(cc4s3)OCCC5S(C)(=O)=O)cc(Cl)n2)c1` (stereo not drawn) [Example 32, N-(2-chloro-6-(3-fluoro-5-methoxyphenoxy)pyridin-4-yl)-4-(methylsulfonyl)-3,4-dihydro-2H-thieno[3,2-g]chromene-7-carboxamide], the IC50 against STAT3 amounted to 0.016 µM; in the test with NCI-N87, 0.031 µM; in the test on MDA-MB-468, 0.0089 µM.

`C[C@]1(S(C)(=O)=O)CCOc2cc3sc(C(=O)Nc4cc(Cl)nc(Oc5ccc(Cl)cc5)c4)cc3cc21` [Example 47, (S)—N-(2-chloro-6-(4-chlorophenoxy)pyridin-4-yl)-4-methyl-4-(methylsulfonyl)-3,4-dihydro-2H-thieno[3,2-g]chromene-7-carboxamide]: the figures for the IC50 against STAT3, in the test with NCI-N87 and in the test on MDA-MB-468 were 0.0045 µM, 0.0064 µM and 0.0017 µM, respectively.

On to `CC1(S(C)(=O)=O)CCOc2cc3sc(C(=O)Nc4cc(Cl)nc(Oc5ccc(Cl)cc5)c4)cc3cc21` (stereo not drawn) [Example 11, N-(2-chloro-6-(4-chlorophenoxy)pyridin-4-yl)-4-methyl-4-(methylsulfonyl)-3,4-dihydro-2H-thieno[3,2-g]chromene-7-carboxamide], for which the values for the IC50 at STAT3, in the test on NCI-N87 and in the test on MDA-MB-468 were 0.006 µM, 0.01 µM and 0.0052 µM, respectively.

In the case of `CS(=O)(=O)C1CCC(=O)c2cc3sc(C(=O)Nc4cc(Cl)nc(Oc5ccc(Cl)cc5)c4)cc3cc21` (stereo not drawn) [Example 51, N-(2-chloro-6-(4-chlorophenoxy)pyridin-4-yl)-5-(methylsulfonyl)-8-oxo-5,6,7,8-tetrahydronaphtho[2,3-b]thiophene-2-carboxamide], the results for the IC50 against STAT3, with NCI-N87 and in the test on MDA-MB-468 were 0.1 µM, 0.2 µM and 0.05 µM, respectively.

On to `CS(=O)(=O)C1CCOc2cc3sc(C(=O)Nc4cc(Cl)nc(Oc5cc(Cl)cc(Cl)c5)c4)cc3cc21` (stereo not drawn) [Example 18, N-(2-chloro-6-(3,5-dichlorophenoxy)pyridin-4-yl)-4-(methylsulfonyl)-3,4-dihydro-2H-thieno[3,2-g]chromene-7-carboxamide], for which the IC50 at STAT3 was found to be 0.015 µM; with NCI-N87, 0.02 µM; with MDA-MB-468, 0.0043 µM.

Regarding `CS(=O)(=O)C1CCCc2cc3sc(C(=O)Nc4cc(Cl)nc(Oc5ccc(Cl)cc5)c4)cc3cc21` (stereo not drawn) [Example 10, N-(2-chloro-6-(4-chlorophenoxy)pyridin-4-yl)-5-(methylsulfonyl)-5,6,7,8-tetrahydronaphtho[2,3-b]thiophene-2-carboxamide], the IC50 against STAT3 worked out at 0.0026 µM; with NCI-N87, 0.006 µM; with MDA-MB-468 it was 0.0019 µM.

Consider `CS(=O)(=O)C1CCOc2cc3sc(C(=O)Nc4cc(Cl)nc(Oc5ccc(C(F)(F)F)cc5)c4)cc3cc21` (stereo not drawn) [Example 17, N-(2-chloro-6-(4-(trifluoromethyl)phenoxy)pyridin-4-yl)-4-(methylsulfonyl)-3,4-dihydro-2H-thieno[3,2-g]chromene-7-carboxamide], for which the figures for the IC50 against STAT3, with NCI-N87 and with MDA-MB-468 were 0.0039 µM, 0.011 µM and 0.0023 µM, respectively.

As for `COc1cc(Cl)cc(Oc2cc(NC(=O)c3cc4cc5c(cc4s3)OCC[C@@H]5S(C)(=O)=O)cc(Cl)n2)c1` [Example 49, (S)—N-(2-chloro-6-(3-chloro-5-methoxyphenoxy)pyridin-4-yl)-4-(methylsulfonyl)-3,4-dihydro-2H-thieno[3,2-g]chromene-7-carboxamide], the figures for the IC50 on STAT3, in the test on NCI-N87 and with MDA-MB-468 were 0.0066 µM, 0.018 µM and 0.0059 µM, respectively.

Turning to `COc1cc(Cl)cc(Oc2cc(NC(=O)c3cc4cc5c(cc4s3)OCCC5S(C)(=O)=O)cc(Cl)n2)c1` (stereo not drawn) [Example 30, N-(2-chloro-6-(3-chloro-5-methoxyphenoxy)pyridin-4-yl)-4-(methylsulfonyl)-3,4-dihydro-2H-thieno[3,2-g]chromene-7-carboxamide], the IC50 against STAT3 worked out at 0.02 µM; in the test with NCI-N87, 0.025 µM; with MDA-MB-468 it was 0.0085 µM.

Take `CS(=O)(=O)C1CCC(F)(F)c2cc3sc(C(=O)Nc4cc(Cl)nc(Oc5ccc(Cl)cc5)c4)cc3cc21` (stereo not drawn) [Example 14, N-(2-chloro-6-(4-chlorophenoxy)pyridin-4-yl)-8,8-difluoro-5-(methylsulfonyl)-5,6,7,8-tetrahydronaphtho[2,3-b]thiophene-2-carboxamide]: the IC50 against STAT3 was found to be 0.029 µM; with NCI-N87, 0.16 µM; in the test on MDA-MB-468, 0.026 µM.

As a reminder, the IC50 is the concentration needed to halve the response being measured. Lower therefore signals higher potency.
